# Tested on: mouse primary adipocytes
# Test: Immunoblot of signaling in primary adipocytes
# Assay type: cell-based
# Method: Epidydimal adipose tissue excised from mice was digested with collagenase (1 mg/ml) in Krebs-Ringer medium (120 mM NaCl, 4.7 mM KCl, 1.2 mM KH2PO4, and 1.2 mM MgSO4) containing 25 mM Hepes (pH 7.4), 200 nM adenosine, 2 mM glucose, and 3% (w/v) bovine serum albumin (BSA) (KRH buffer) at 37°C in a shaking incubator. Adipocytes were isolated by filtering and washing in KRH buffer. For preparation of protein extracts for Western blot, adipocyte suspensions [0.7 to 1 ml of 10% (v/v) cells] were preincubated with BAY-3827 or BAY-974 compounds or 0.1% DMSO for 1 hour at 37°C in a shaking (80 rpm) water bath followed by either 1 hour of incubation with 10 μM MK-8722 or 30 min with 0.1 nM insulin (Novo Nordisk) in KRH buffer, as indicated in the figure legends. […] Lysates were centrifuged at 13,000g for 15 min (4°C), and supernatant protein concentration was determined by the Bradford assay. […]
# For adipocyte experiments, cell lysates (25 μg protein) were heated at 95°C for 3 min in LDS sample buffer, subjected to polyacrylamide gel electrophoresis on precast Novex gradient gels (Thermo Fisher Scientific) and electrotransferred to nitrocellulose membranes. […] Luminescence signals were visualized in a ChemiDoc XRS+ (Bio-Rad) and quantified by densitometry using the software Image LabTM 5.1 (Bio-Rad). […]
smiles,measurement,setting,value
"CCc1ccccc1C(=O)Nc1n[nH]c2c(C)c(F)c(C3C(C#N)=C(C)N(C)C(C)=C3C#N)cc12 [BAY-3827, N-[5-(3,5-dicyano-1,2,6-trimethyl-4H-pyridin-4-yl)-6-fluoro-7-methyl-1H-indazol-3-yl]-2-ethylbenzamide]",basal and insulin-stimulated phosphorylation of Akt and TBC1D4,10 μM,not significantly affected
same,Raptor phosphorylation,"varying doses, irrespective of MK-8722",dose-dependent reduction
